± gives the uncertainty stated by the source.
Experiment: xn = mol fraction of the nth substance listed

CCCC(=O)O + CNC=O
viscosity [mPa·s], 100 kPa
Settings	x2 = 0.1187	x2 = 0.1967	x2 = 0.2806	x2 = 0.3708	x2 = 0.5026	x2 = 0.6111	x2 = 0.6888	x2 = 0.7711	x2 = 0.9041
303.15 K	1.415	1.434	1.455	1.476	1.504	1.524	1.537	1.55	1.57
308.15 K	1.275	1.296	1.317	1.34	1.37	1.393	1.408	1.423	1.447
313.15 K	1.136	1.159	1.183	1.208	1.242	1.269	1.286	1.305	1.334
318.15 K	0.9979	1.024	1.052	1.08	1.12	1.152	1.174	1.197	1.233

CCCCNCCCC + CO
viscosity [mPa·s], 101 kPa
Settings	x2 = 0.0931	x2 = 0.1959	x2 = 0.2948	x2 = 0.3963	x2 = 0.4955	x2 = 0.6075	x2 = 0.7011	x2 = 0.7979	x2 = 0.9185
303.15 K	0.745 ± 0.004	0.725 ± 0.004	0.706 ± 0.004	0.689 ± 0.004	0.663 ± 0.004	0.639 ± 0.004	0.609 ± 0.004	0.579 ± 0.003	0.548 ± 0.003
313.15 K	0.643 ± 0.004	0.626 ± 0.004	0.61 ± 0.004	0.595 ± 0.004	0.569 ± 0.003	0.549 ± 0.003	0.525 ± 0.003	0.501 ± 0.003	0.476 ± 0.003
323.15 K	0.543 ± 0.003	0.528 ± 0.003	0.513 ± 0.003	0.498 ± 0.003	0.483 ± 0.003	0.467 ± 0.003	0.452 ± 0.003	0.435 ± 0.003	0.413 ± 0.002

COCCO + CO
viscosity [mPa·s]
Settings	298.15 K	308.15 K	318.15 K
101 kPa, x1 = 0.04469	0.6045 ± 0.061	0.5088 ± 0.051	0.4575 ± 0.046
101 kPa, x1 = 0.09523	0.6714 ± 0.067	0.536 ± 0.054	0.469 ± 0.047
101 kPa, x1 = 0.1529	0.7467 ± 0.075	–	0.4955 ± 0.05
101 kPa, x1 = 0.2192	0.8508 ± 0.085	0.6249 ± 0.063	0.5383 ± 0.054
101 kPa, x1 = 0.2963	0.9698 ± 0.097	0.6991 ± 0.07	0.6017 ± 0.06
101 kPa, x1 = 0.3871	1.085 ± 0.11	0.7594 ± 0.076	0.6484 ± 0.065
101 kPa, x1 = 0.4956	1.19 ± 0.12	0.8407 ± 0.084	0.7649 ± 0.077
101 kPa, x1 = 0.6274	1.299 ± 0.13	0.9321 ± 0.093	0.8436 ± 0.085
101 kPa, x1 = 0.7912	1.419 ± 0.14	1.058 ± 0.11	0.9667 ± 0.097
101.33 kPa, x1 = 0.1175	–	0.569 ± 0.005	–
101.33 kPa, x1 = 0.2098	–	0.64 ± 0.006	–
101.33 kPa, x1 = 0.3143	–	0.717 ± 0.006	–
101.33 kPa, x1 = 0.4866	–	0.844 ± 0.007	–
101.33 kPa, x1 = 0.6126	–	0.93 ± 0.008	–
101.33 kPa, x1 = 0.762	–	1.036 ± 0.009	–
101.33 kPa, x1 = 0.8201	–	1.074 ± 0.009	–
101.33 kPa, x1 = 0.9101	–	1.13 ± 0.01	–

N#C[S-].[Na+] + CO
viscosity [mPa·s], 101.3 kPa
Settings	293.15 K	298.15 K	303.15 K	308.15 K	313.15 K	318.15 K	323.15 K
x1 = 0.003649	0.656 ± 0.049	0.608 ± 0.045	0.563 ± 0.042	0.526 ± 0.039	0.491 ± 0.037	0.46 ± 0.034	0.432 ± 0.032
x1 = 0.01456	0.819 ± 0.061	0.753 ± 0.056	0.695 ± 0.052	0.643 ± 0.048	0.597 ± 0.044	0.556 ± 0.041	0.518 ± 0.039
x1 = 0.03159	0.947 ± 0.07	0.871 ± 0.065	0.803 ± 0.059	0.743 ± 0.055	0.689 ± 0.051	0.646 ± 0.048	0.602 ± 0.045
x1 = 0.0463	1.117 ± 0.082	1.027 ± 0.076	0.947 ± 0.07	0.873 ± 0.064	0.811 ± 0.06	0.753 ± 0.056	0.703 ± 0.052
x1 = 0.05341	1.197 ± 0.088	1.101 ± 0.081	1.011 ± 0.075	0.932 ± 0.069	0.861 ± 0.064	0.798 ± 0.059	0.742 ± 0.055
x1 = 0.07204	1.409 ± 0.1	1.286 ± 0.095	1.176 ± 0.086	1.086 ± 0.08	1.011 ± 0.074	0.923 ± 0.068	0.859 ± 0.063
x1 = 0.08868	1.716 ± 0.13	1.552 ± 0.11	1.416 ± 0.1	1.293 ± 0.095	1.186 ± 0.087	1.092 ± 0.08	1.009 ± 0.074
x1 = 0.09954	1.915 ± 0.14	1.711 ± 0.12	1.514 ± 0.11	1.38 ± 0.1	1.261 ± 0.092	1.16 ± 0.085	1.068 ± 0.078
x1 = 0.1138	2.253 ± 0.17	1.996 ± 0.15	1.793 ± 0.13	1.624 ± 0.12	1.477 ± 0.11	1.353 ± 0.099	1.239 ± 0.09
x1 = 0.1229	2.36 ± 0.17	2.109 ± 0.15	1.904 ± 0.14	1.732 ± 0.13	1.565 ± 0.11	1.426 ± 0.1	1.304 ± 0.095
x1 = 0.1415	2.922 ± 0.21	2.58 ± 0.19	2.295 ± 0.17	2.055 ± 0.15	1.854 ± 0.14	1.683 ± 0.12	1.535 ± 0.11

COCCO + COC(=O)OC
298.15 K, 101.33 kPa
Settings	viscosity [mPa·s]
x1 = 0.0114	0.593 ± 0.008
x1 = 0.0258	0.594 ± 0.008
x1 = 0.0442	0.598 ± 0.008
x1 = 0.0637	0.6 ± 0.008
x1 = 0.0769	0.603 ± 0.008
x1 = 0.0975	0.608 ± 0.008
x1 = 0.1462	0.624 ± 0.008
x1 = 0.2295	0.658 ± 0.008
x1 = 0.2503	0.669 ± 0.008
x1 = 0.2778	0.681 ± 0.008
x1 = 0.3223	0.704 ± 0.008
x1 = 0.34	0.713 ± 0.008
x1 = 0.4034	0.758 ± 0.008
x1 = 0.4719	0.81 ± 0.008
x1 = 0.5173	0.848 ± 0.008
x1 = 0.5482	0.874 ± 0.008
x1 = 0.5889	0.91 ± 0.009
x1 = 0.6404	0.96 ± 0.009
x1 = 0.7382	1.075 ± 0.009
x1 = 0.814	1.12 ± 0.1
x1 = 0.8597	1.252 ± 0.01
x1 = 0.89	1.305 ± 0.01
x1 = 0.9189	1.355 ± 0.01
x1 = 0.9738	1.471 ± 0.011
x2 = 0.0109	1.516 ± 0.011
